Assay: xn = mol fraction of the nth substance listed
Conditions: Liquid; for mass density: Vibrating tube method

CCO [ethanol] + O
viscosity [mPa·s], Capillary tube (Ostwald / Ubbelohde) method
Conditions	x1 = 0.1	x1 = 0.2	x1 = 0.3	x1 = 0.4	x1 = 0.6	x1 = 0.8	x1 = 1
523.2 K, 20000 kPa	0.12	0.119	0.114	0.109	0.099	0.092	0.087
523.2 K, 30000 kPa	0.126	0.127	0.125	0.119	0.113	0.107	0.103
523.2 K, 40000 kPa	0.132	0.132	0.134	0.128	0.124	0.119	0.115
573.2 K, 20000 kPa	0.085	0.078	0.07	0.065	0.057	0.054	0.053
573.2 K, 30000 kPa	0.088	0.084	0.079	0.075	0.069	0.067	0.066
573.2 K, 40000 kPa	0.093	0.091	0.089	0.085	0.08	0.078	0.077
618.2 K, 20000 kPa	0.054	0.035	0.031	0.032	0.035	0.038	0.039
618.2 K, 30000 kPa	0.072	0.065	0.059	0.057	0.055	0.055	0.055
618.2 K, 40000 kPa	0.081	0.076	0.073	0.07	0.067	0.067	0.067

mass density [kg/m3]
Conditions	x1 = 0.1	x1 = 0.2	x1 = 0.3	x1 = 0.4	x1 = 0.6	x1 = 0.8	x1 = 1
523.2 K, 20000 kPa	745.9	694.1	653.2	622.3	578.5	550.5	533.1
523.2 K, 30000 kPa	761.6	713.6	676.9	650.7	612.4	588.9	573.6
523.2 K, 40000 kPa	773.2	728.3	694.7	671.6	636.3	615.2	601.3
573.2 K, 20000 kPa	649.3	585.4	534.9	494.9	446.2	426.2	421.1
573.2 K, 30000 kPa	674.8	621.4	582.5	553.5	517.6	499	491.5
573.2 K, 40000 kPa	694.9	647.6	614	587.9	557.4	540.4	531
618.2 K, 20000 kPa	445.3	281.3	250.4	253.1	270.6	295	314.6
618.2 K, 30000 kPa	566.3	501.5	460.9	437.4	420.1	418.9	423.8
618.2 K, 40000 kPa	610.3	561	529.3	509.1	488.2	481.7	481.2

CO [methanol] + O
viscosity [mPa·s], Pressure drop in straight capillary
Conditions	x1 = 0.1	x1 = 0.2	x1 = 0.3	x1 = 0.4	x1 = 0.6	x1 = 0.8	x1 = 1
523.2 K, 20000 kPa	0.116	0.112	0.108	0.102	0.09	0.079	0.07
523.2 K, 30000 kPa	0.118	0.117	0.114	0.11	0.1	0.09	0.08
523.2 K, 40000 kPa	0.121	0.121	0.119	0.115	0.107	0.098	0.089
573.2 K, 20000 kPa	0.084	0.08	0.074	0.067	0.054	0.045	0.042
573.2 K, 30000 kPa	0.089	0.085	0.078	0.078	0.072	0.065	0.063
573.2 K, 40000 kPa	0.094	0.091	0.087	0.084	0.075	0.069	0.065
618.2 K, 20000 kPa	0.06	0.035	0.026	0.025	0.027	0.027	0.029
618.2 K, 30000 kPa	0.071	0.065	0.058	0.052	0.047	0.044	0.043
618.2 K, 40000 kPa	0.078	0.073	0.069	0.065	0.059	0.055	0.053

mass density [kg/m3]
Conditions	x1 = 0.1	x1 = 0.2	x1 = 0.3	x1 = 0.4	x1 = 0.6	x1 = 0.8	x1 = 1
523.2 K, 20000 kPa	767.8	724.7	686.4	652.8	597.1	552.1	517.5
523.2 K, 30000 kPa	781.4	740.7	705.9	677	628.4	591.4	563.57
523.2 K, 40000 kPa	791.9	754.4	722.3	694.7	650.9	618.2	593.3
573.2 K, 20000 kPa	674.5	619.8	569.3	522.3	439.6	380.5	345.3
573.2 K, 30000 kPa	696.2	650.4	610.2	575.5	520.4	482.3	457.63
573.2 K, 40000 kPa	714.3	673.1	638	608	562.4	530.6	511
618.2 K, 20000 kPa	497.6	299.3	208.9	198.2	198.4	203.9	210.5
618.2 K, 30000 kPa	586	524.1	473.1	430.4	381.7	360.2	350.4
618.2 K, 40000 kPa	624.9	578.5	544.1	512	470.3	446.2	427.7
